Experiments:
Capan-2 = assay: Growth inhibition of human Capan-2 cells incubated for 72 hrs by MTT assay; format: functional
PANC-1 = assay: Growth inhibition of human PANC-1 cells incubated for 72 hrs by MTT assay; format: functional
[1] = Growth inhibition of human SJG2 cells incubated for 72 hrs by MTT assay; format: functional; conditions: SJ-G2
A2780 = assay: Growth inhibition of human A2780 cells incubated for 72 hrs by MTT assay; format: functional
ASPC1 = assay: Growth inhibition of human ASPC1 cells incubated for 72 hrs by MTT assay; format: functional
BXPC-3 = assay: Growth inhibition of human BXPC-3 cells incubated for 72 hrs by MTT assay; format: functional
[2] = Growth inhibition of human MCF-10A cells incubated for 72 hrs by MTT assay; format: toxicity, cell-based
NCI-H460 = assay: Growth inhibition of human NCI-H460 cells incubated for 72 hrs by MTT assay; format: functional
U-87 MG = assay: Growth inhibition of human U87 cells incubated for 72 hrs by MTT assay; format: functional, U-87MG ATCC
BE(2)-C = assay: Growth inhibition of human BE2C cells incubated for 72 hrs by MTT assay; format: functional
MCF7 = assay: Growth inhibition of human MCF7 cells incubated for 72 hrs by MTT assay; format: functional
A-431 = assay: Growth inhibition of human A-431 cells incubated for 72 hrs by MTT assay; format: functional
MIA PaCa-2 = assay: Growth inhibition of human MIA PaCa-2 cells incubated for 72 hrs by MTT assay; format: functional
HPAC = assay: Growth inhibition of human HPAC cells incubated for 72 hrs by MTT assay; format: functional
HT-29 = assay: Growth inhibition of human HT-29 cells incubated for 72 hrs by MTT assay; format: functional
DU-145 = assay: Growth inhibition of human DU-145 cells incubated for 72 hrs by MTT assay; format: functional

| SMILES | GI50 (Capan-2) [µM] | GI50 (PANC-1) [µM] | GI50 [1] [µM] | GI50 (A2780) [µM] | GI50 (ASPC1) [µM] | GI50 (BXPC-3) [µM] | GI50 at 72 h [2] [µM] | GI50 (NCI-H460) [µM] | GI50 (U-87 MG) [µM] | GI50 (BE(2)-C) [µM] | GI50 (MCF7) [µM] | GI50 (A-431) [µM] | GI50 (MIA PaCa-2) [µM] | GI50 (HPAC) [µM] | GI50 (HT-29) [µM] | GI50 (DU-145) [µM] |
| --- | --- | --- | --- | --- | --- | --- | --- | --- | --- | --- | --- | --- | --- | --- | --- | --- |
| COc1ccc(CNCCCNS(=O)(=O)c2cc(C(F)(F)F)cc(C(F)(F)F)c2)cc1OC | 15 | 18 | 18 | 3.8 | 6.4 | 13 | 5.3 | 2.4 | 3.4 | 3.6 | 1.9 | 7 | 2.8 | 3.5 | 2.7 | 4 |
| O=S(=O)(NCCCCCCNCc1ccc(Br)cc1)c1ccccc1Cl | – | – | – | – | – | – | – | – | – | – | – | – | 13.7 | – | – | – |
| O=S(=O)(NCCCCCCNCc1ccc(Br)cc1)c1c(Cl)cc(C(F)(F)F)cc1Cl | – | – | – | – | – | – | – | – | – | – | – | – | 5.67 | – | – | – |
| O=S(=O)(NCCNCc1cccc2ccccc12)c1cc(C(F)(F)F)cc(C(F)(F)F)c1 | 21 | 24 | – | 21 | 22 | 23 | 22 | – | – | 19 | 18 | – | 26 | 18 | 16 | – |
| O=S(=O)(NCCCNCc1cccc2ccccc12)c1cc(C(F)(F)F)cc(C(F)(F)F)c1 | 2.7 | 2.7 | – | 3.1 | 21 | 2.7 | 3.2 | – | – | 2.7 | 1.4 | – | 2.8 | 2.4 | 2.6 | – |
| CC(C)(C)c1ccc(CNCCNS(=O)(=O)c2cc(C(F)(F)F)cc(C(F)(F)F)c2)cc1 | 13 | 13 | 14 | 14 | 14 | 8.8 | 14 | 14 | 13 | 14 | 13 | 16 | 15 | 14 | 14 | 16 |
| COc1cccc(CNCCCNS(=O)(=O)c2cc(C(F)(F)F)cc(C(F)(F)F)c2)c1 | 6.4 | 10 | – | 1.6 | 3.8 | 1.7 | 6.6 | – | – | 4.5 | 2.4 | – | 3.4 | 2.4 | 10 | – |
| O=S(=O)(NCCCNCc1ccc(Cl)cc1)c1cc(C(F)(F)F)cc(C(F)(F)F)c1 | 2.7 | 4.9 | – | 1.8 | 3 | 1.6 | 2.3 | – | – | 2.9 | 2.4 | – | 2.8 | 2.8 | 2.8 | – |
| COc1ccc(CNCCNS(=O)(=O)c2cc(C(F)(F)F)cc(C(F)(F)F)c2)cc1OC | 34 | 34 | 29 | 14 | 20 | 20 | 25 | 19 | 25 | 23 | 25 | 25 | 29 | 16 | 13 | 30 |
| O=S(=O)(NCCCCCCNCc1ccc(Br)cc1)c1cccc(C(F)(F)F)c1 | – | – | – | – | – | – | – | – | – | – | – | – | 5.97 | – | – | – |
| O=S(=O)(NCCCCCCNCc1ccc(Br)cc1)c1ccccc1F | – | – | – | – | – | – | – | – | – | – | – | – | 13.3 | – | – | – |
| COc1ccccc1CNCCCNS(=O)(=O)c1cc(C(F)(F)F)cc(C(F)(F)F)c1 | 6 | 12 | – | 1.5 | 4.6 | 1.7 | 5.5 | – | – | 3.6 | 2.6 | – | 3.1 | 2.4 | 12 | – |
| O=S(=O)(NCCCNCc1ccc(-c2ccccc2)cc1)c1cc(C(F)(F)F)cc(C(F)(F)F)c1 | 2.2 | 2.5 | 2.3 | 2.6 | 2.5 | 1.7 | 2.8 | 2.5 | 2.2 | 2.6 | 1.7 | 2.6 | 2.4 | 2.7 | 2.3 | 2.7 |
| O=[N+]([O-])c1ccccc1S(=O)(=O)NCCCCCCNCc1ccc(Br)cc1 | – | – | – | – | – | – | – | – | – | – | – | – | 11.7 | – | – | – |
| Cc1ccc(C)c(S(=O)(=O)NCCCCCCNCc2ccc(Br)cc2)c1 | – | – | – | – | – | – | – | – | – | – | – | – | 12 | – | – | – |
| O=S(=O)(NCCCNCc1ccc(C(F)(F)F)cc1)c1cc(C(F)(F)F)cc(C(F)(F)F)c1 | 2 | 3.2 | – | 2.8 | 2 | 1.7 | 3.3 | – | – | 2.7 | 1.4 | – | 2.5 | 2.7 | 2.9 | – |
| O=S(=O)(NCCCNCc1ccccc1)c1cc(C(F)(F)F)cc(C(F)(F)F)c1 | 14 | 16 | – | 4.9 | 13 | 13 | 13 | – | – | 12 | 3 | – | 11 | 3.2 | 15 | – |
| O=S(=O)(NCCCNCC1COc2ccccc2O1)c1cc(C(F)(F)F)cc(C(F)(F)F)c1 (stereo not drawn) | 2.5 | 3.4 | – | 1.5 | 2.9 | 1.2 | 3.2 | – | – | 2.8 | 2.5 | – | 2.6 | 2.7 | 2.2 | – |
| O=S(=O)(NCCCCCCNCc1ccc(Br)cc1)c1ccc(Cl)cc1 | – | – | – | – | – | – | – | – | – | – | – | – | 5.9 | – | – | – |

| SMILES | GI50 (Capan-2) [µM] | GI50 (PANC-1) [µM] | GI50 [1] [µM] | GI50 (A2780) [µM] | GI50 (ASPC1) [µM] | GI50 (BXPC-3) [µM] | GI50 at 72 h [2] [µM] | GI50 (NCI-H460) [µM] | GI50 (U-87 MG) [µM] | GI50 (BE(2)-C) [µM] | GI50 (MCF7) [µM] | GI50 (A-431) [µM] | GI50 (MIA PaCa-2) [µM] | GI50 (HPAC) [µM] | GI50 (HT-29) [µM] | GI50 (DU-145) [µM] |
| --- | --- | --- | --- | --- | --- | --- | --- | --- | --- | --- | --- | --- | --- | --- | --- | --- |
| O=S(=O)(NCCCCCCNCc1ccc(Br)cc1)c1ccc(C(F)(F)F)cc1 | – | – | – | – | – | – | – | – | – | – | – | – | 3.83 | – | – | – |
| O=S(=O)(NCCCNCc1ccc(Cl)c(Cl)c1)c1cc(C(F)(F)F)cc(C(F)(F)F)c1 | 1.8 | 5.6 | – | 1.5 | 2.8 | 1.4 | 3 | – | – | 2.9 | 2.4 | – | 2.7 | 2.5 | 4.7 | – |
| CCCCc1ccc(S(=O)(=O)NCCCCCCNCc2ccc(Br)cc2)cc1 | – | – | – | – | – | – | – | – | – | – | – | – | 5.7 | – | – | – |
| O=S(=O)(NCCCCCCNCc1ccc(Br)cc1)c1ccc2c(c1)OCC2 | – | – | – | – | – | – | – | – | – | – | – | – | 13 | – | – | – |
| O=[N+]([O-])c1ccc(S(=O)(=O)NCCCCCCNCc2ccc(Br)cc2)cc1 | – | – | – | – | – | – | – | – | – | – | – | – | 9.8 | – | – | – |
| CC(C)c1ccc(S(=O)(=O)NCCCCCCNCc2ccc(Br)cc2)cc1 | – | – | – | – | – | – | – | – | – | – | – | – | 5.73 | – | – | – |
| O=S(=O)(NCCCCCCNCc1ccc(Br)cc1)c1c(Cl)cccc1Cl | – | – | – | – | – | – | – | – | – | – | – | – | 14.7 | – | – | – |
| O=S(=O)(NCCCCCCNCc1ccc(Br)cc1)c1ccc2ccsc2c1 | – | – | – | – | – | – | – | – | – | – | – | – | 6 | – | – | – |
| O=S(=O)(NCCCCNCc1ccc(Br)cc1)c1cc(C(F)(F)F)cc(C(F)(F)F)c1 | 1.9 | 2.2 | – | 2.1 | 2.9 | 1.7 | 3.2 | – | – | 2.2 | 1.5 | – | 2.1 | 2 | 1.6 | – |
| O=S(=O)(NCCCNCc1ccc(Cl)c(C(F)(F)F)c1)c1cc(C(F)(F)F)cc(C(F)(F)F)c1 | 9.1 | 10 | – | 5.9 | 9.6 | 7.8 | 7.9 | – | – | 8.6 | 3.5 | – | 7.4 | 3 | 11 | – |
| CC(C)(C)c1ccc(S(=O)(=O)NCCCCCCNCc2ccc(Br)cc2)cc1 | – | – | – | – | – | – | – | – | – | – | – | – | 2.97 | – | – | – |
| O=S(=O)(NCCCNCc1cccc(Cl)c1)c1cc(C(F)(F)F)cc(C(F)(F)F)c1 | 8 | 12 | – | 2.2 | 5.9 | 3.8 | 7 | – | – | 6.9 | 2.6 | – | 4.4 | 2.7 | 14 | – |
| Cc1ccc(S(=O)(=O)NCCCCCCNCc2ccc(Br)cc2)cc1 | – | – | – | – | – | – | – | – | – | – | – | – | 12.3 | – | – | – |
| O=S(=O)(NCCCCCCNCc1ccc(Br)cc1)c1cc(C(F)(F)F)cc(C(F)(F)F)c1 | – | – | – | – | – | – | – | – | – | – | – | – | 2.97 | – | – | – |
| COc1ccc(S(=O)(=O)NCCCCCCNCc2ccc(Br)cc2)cc1 | – | – | – | – | – | – | – | – | – | – | – | – | 13 | – | – | – |
| O=S(=O)(NCCCCCCNCc1ccc(Br)cc1)c1cc(Cl)cc(Cl)c1 | – | – | – | – | – | – | – | – | – | – | – | – | 12 | – | – | – |
| O=S(=O)(NCCCNCc1ccccc1Cl)c1cc(C(F)(F)F)cc(C(F)(F)F)c1 | 13 | 15 | – | 9.3 | 13 | 11 | 11 | – | – | 15 | 8.8 | – | 11 | 10 | 20 | – |
| CN(CCCNS(=O)(=O)c1cc(C(F)(F)F)cc(C(F)(F)F)c1)Cc1ccccc1 | 46 | > 50 | – | 28 | 51 | 39 | 26 | – | – | 28 | 16 | – | 33 | 30 | > 50 | – |
| COc1ccc(CNCCCNS(=O)(=O)c2cc(C(F)(F)F)cc(C(F)(F)F)c2)cc1 | 2.4 | 11 | – | 1.7 | 2.8 | 1.3 | 3.1 | – | – | 2.8 | 2.5 | – | 2.5 | 3 | 2.9 | – |

Reference: ChEMBL document CHEMBL5131478, “3,5-Bis(trifluoromethyl)phenylsulfonamides, a novel pancreatic cancer active lead. Investigation of the terminal aromatic moiety” (Bioorg Med Chem Lett, 2022)
